Structures can show the parent of a compound that is named as a salt. Where two headings read alike, the source gives them in different places.
How the values were obtained:
[1] = tested on: extracted mouse vas deferens preparation; experiment: Opioid activity test using an extracted mouse vas deferens preparation (suppression of electrically induced contractions); set-up: species or system male ddy mouse; conditions: electrical stimulus 0.1 Hz, 37° C.
Summary of the method: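 Male ddY mouse vas deferens in Krebs-Henseleit at 37° C, 5% CO2/95% O2, field-stimulated at 0.1 Hz, 5.0 ms; isometric contractions recorded. After adding naloxone, NTI or norBNI, test compound was added cumulatively after ~20 min; Ke derived from the difference in agonist efficacies.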

[2] = target: T1, μ receptor (Mus musculus, UniProt P42866); experiment: Opioid activity test using an extracted mouse vas deferens preparation, Ke with naloxone; set-up: species or system male ddy mouse; conditions: naloxone added
T1 construct: naloxone as mu antagonist (printed 'agonist')
T1 sequence (P42866 whole entry): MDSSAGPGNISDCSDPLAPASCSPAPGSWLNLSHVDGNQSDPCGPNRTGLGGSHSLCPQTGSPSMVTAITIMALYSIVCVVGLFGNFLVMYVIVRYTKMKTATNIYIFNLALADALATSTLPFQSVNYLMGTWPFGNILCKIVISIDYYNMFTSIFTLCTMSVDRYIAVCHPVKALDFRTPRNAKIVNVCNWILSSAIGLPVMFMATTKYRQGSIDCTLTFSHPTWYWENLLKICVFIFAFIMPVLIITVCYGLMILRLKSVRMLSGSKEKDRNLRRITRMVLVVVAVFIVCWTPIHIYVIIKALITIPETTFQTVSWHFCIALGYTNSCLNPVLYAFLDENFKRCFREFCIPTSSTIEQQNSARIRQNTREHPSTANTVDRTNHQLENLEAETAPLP

[3] = target: T2, δ receptor (Mus musculus, UniProt P32300); set-up: species or system male ddy mouse; conditions: for Ke, NTI: δ, NTI added
T2 construct: The vas deferens extracted from the animal was suspended in a Magnus tube; from tissue; host or cells: mouse (male ddy) vas deferens
T2 sequence (P32300 whole entry): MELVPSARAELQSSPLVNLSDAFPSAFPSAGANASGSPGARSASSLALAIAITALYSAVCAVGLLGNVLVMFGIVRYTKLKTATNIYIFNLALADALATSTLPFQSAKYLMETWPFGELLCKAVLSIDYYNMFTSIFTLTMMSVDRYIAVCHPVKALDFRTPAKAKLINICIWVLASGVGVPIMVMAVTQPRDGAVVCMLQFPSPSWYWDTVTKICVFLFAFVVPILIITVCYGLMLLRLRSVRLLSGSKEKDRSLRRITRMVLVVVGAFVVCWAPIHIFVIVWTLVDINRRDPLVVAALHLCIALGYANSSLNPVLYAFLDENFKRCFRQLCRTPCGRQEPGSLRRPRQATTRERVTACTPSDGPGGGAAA

[4] = target: T3, κ receptor (Mus musculus, UniProt P33534); experiment: Opioid activity test using an extracted mouse vas deferens preparation, Ke with norBNI; set-up: species or system male ddy mouse; conditions: for Ke, norBNI: κ, norBNI added; for receptor selectivity of agonist (κ): in words
T3 construct: from tissue; host or cells: mouse (male ddy) vas deferens
T3 sequence (P33534 whole entry): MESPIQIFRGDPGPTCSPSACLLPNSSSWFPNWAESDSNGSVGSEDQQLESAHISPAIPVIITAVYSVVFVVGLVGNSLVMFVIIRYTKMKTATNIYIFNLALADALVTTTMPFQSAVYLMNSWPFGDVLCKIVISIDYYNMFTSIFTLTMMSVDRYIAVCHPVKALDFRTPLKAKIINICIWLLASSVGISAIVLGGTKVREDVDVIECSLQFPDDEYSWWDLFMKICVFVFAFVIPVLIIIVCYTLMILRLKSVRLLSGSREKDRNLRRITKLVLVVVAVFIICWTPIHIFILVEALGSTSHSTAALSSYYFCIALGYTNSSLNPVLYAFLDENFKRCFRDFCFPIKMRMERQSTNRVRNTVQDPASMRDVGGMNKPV

[5] = tested on: acetic acid-induced writhing in ddy mice; experiment: animal or person; type: in vivo, 5 week old ddy mice; conditions: Mus musculus, sc, s.c. 15 minutes before acetic acid, read-out: ED50
Procedure: 5 week old ddy mice were used in this test. After intraperitoneal administration of 0.1 ml of 0.6% aqueous acetic acid per 10 g of body weight, the number of writhing reactions that occurred in 10 minutes starting 10 minutes after administration was evaluated for the indicator. The test drug was administered subcutaneously into the backs of the animals 15 minutes before administration of acetic acid.

[6] = Diuretic action (urine output for 5 hours after physiological saline loading in rats); type: in vivo, male Wistar rats; conditions: for ED (200% urine output) / ED (500% urine output): Rattus norvegicus, sc, 5 hours after saline 20 ml/kg p.o.; for ED (200% urine output): dose giving urine output of 200 (non-dosed group = 100); for ED (500% urine output): dose giving urine output of 500 (non-dosed group = 100)
Summary of the method: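 Male Wistar rats (7-8 weeks), water withheld 1 h, bladder emptied, drug given subcutaneously; 30 min later 20 ml/kg saline orally. Urine collected 5 h after saline loading in metabolic cages; ED200 and ED500 are doses giving urine output of 200 and 500 relative to non-dosed group at 100.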

[7] = tested on: cultured nerve cells (cerebral cortex); conditions: 10 mM glutamic acid, 24 hours
[8] = tested on: cultured nerve cells (cerebral cortex); experiment: cells; conditions: Rattus norvegicus, Cerebral cortex neuron, 24 h, read-out: ED50 (protection against glutamic acid toxicity)
[9] = tested on: nerve cells in the region of the hippocampus CA1; experiment: Delayed neuronal death protective action (gerbil transient ischemia model, hippocampus CA1 nerve cell count); type: in vivo, gerbils; conditions: s.c.; for No. of Residual Nerve Cells: 30 minutes before ischemia, 1 week after ligation; for Suppression of defluxion of brain nerve cells caused by ischemia / cerebro-neuroprotective activity (in words): gerbils
Procedure: Those compounds that provide protection from and suppress delayed neuronal death described in Example 238 are considered to be promising as preventive and therapeutic agents for ischemic brain disorders, brain nerve cell disorders and dementia, which are problems that the present invention is attempting to solve. The pharmacological activity of the compounds of the present invention was evaluated in the manner below using gerbils for the animal model.
A midline incision was made in gerbils having body weights of 50-70 g under ether anesthesia. Blood flow through the carotid arteries on both sides was interrupted to create an ischemic state by ligating the vessels for 5 minutes. The test compound was administered subcutaneously either 30 minutes or 1 hour prior to ligation ischemia, and the rectal temperature of the animals was controlled to 37±2° C. using a heating pad or heater starting 5 minutes before to 30 minutes after ligation ischemia. 1 week after ligation, 4% neutral buffered formalin was perfused from the heart throughout the body followed by extraction of the brain. After post-fixing the extracted brain in the same solution, the tissue was prepared into sections after embedding in paraffin. The sections were stained with hematoxylin and eosin stain, and the number of nerve cells in the region of the hippocampus CA1 over a width of 1 mm to the left and right was counted. The total number of nerve cells on the right and left sides was then used for evaluation.

SMILES | IC50 [1] [nM] | Ke, Naloxone [2] [nM] | receptor selectivity of agonist (δ) ([3]; mouse vas deferens, in words) | Ke, NTI ([3]; mouse vas deferens) [nM] | Ke, norBNI [4] [nM] | ED50 [5] [mg/kg] | ED (200% urine output) [6] [mg/kg] | ED (500% urine output) [6] [mg/kg] | Diuretic action (in words) ([6]; s.c., from ED200 values) | Protective action against cytotoxicity caused by glutamic acid (in words) [7] | EC50 [8] [nM] | No. of Residual Nerve Cells ([9]; 0.03 mg/kg) | No. of Residual Nerve Cells ([9]; 0.3 mg/kg) | No. of Residual Nerve Cells ([9]; 3 mg/kg) | Suppression of defluxion of brain nerve cells caused by ischemia / cerebro-neuroprotective activity (in words) [9] | receptor selectivity of agonist (κ) [4] | receptor selectivity of agonist (δ) [3]
CN(C(=O)/C=C/c1ccccc1)[C@H]1CC[C@@]2(O)[C@H]3Cc4ccc(O)c5c4[C@@]2(CCN3CC2CC2)[C@H]1O5 [Compound 24, 17-cyclopropylmethyl-3,14β-dihydroxy-4,5α-epoxy-6α-(N-methylcinnamamido)morphinan.cndot.hydrochloride] | 0.121 | 16.5 | selective agonists for δ receptors | 0.426 | 4.90 | 0.00575 | 0.00069 | 0.0063 | extremely strong diuretic action | clearly demonstrated action that protects nerve cells from cytotoxicity caused by glutamic acid | 1910 |  |  |  |  |  | 
CN(C(=O)CCCCCc1ccccc1)[C@H]1CC[C@@]2(O)[C@H]3Cc4ccc(O)c5c4[C@@]2(CCN3CC2CC2)[C@H]1O5 [Compound 36, 17-cyclopropylmethyl-3,14β-dihydroxy-4,5α-epoxy-6α-(N-methyl-6-phenylhexanamido)morphinan.cndot.hydrochloride] |  |  |  |  |  | 0.23 |  |  |  | clearly demonstrated action that protects nerve cells from cytotoxicity caused by glutamic acid | 230 | 38.8 ± 19.6 | 85.5 ± 34.9 | 68.0 ± 45.3 | significantly suppress defluxion of brain nerve cells caused by ischemia |  | 
CC(C)CN(C(=O)Cc1ccc(Cl)c(Cl)c1)[C@H]1CC[C@@]2(O)[C@H]3Cc4ccc(O)c5c4[C@@]2(CCN3CC2CC2)[C@H]1O5 [Compound 51, 17-cyclopropylmethyl-4,5α-epoxy-3,14β-dihydroxy-6α-(N-isobutyl-3,4-dichlorophenylacetoamido)morphinan.cndot.hydrochloride] |  |  |  |  |  | 0.19 |  |  |  | clearly demonstrated action that protects nerve cells from cytotoxicity caused by glutamic acid | 30 | 17.8 ± 6.9 | 46.4 ± 15.1 | 203.8 ± 40.1 | significantly suppress defluxion of brain nerve cells caused by ischemia |  | 
CN(C(=O)/C=C/C1CCCCC1)[C@@H]1CC[C@@]2(O)[C@H]3Cc4ccc(O)c5c4[C@@]2(CCN3CC2CC2)[C@H]1O5 [Compound 68, 17-cyclopropylmethyl-3,14β-dihydroxy-4,5α-epoxy-6β-(N-methyl-3-cyclohexylacrylamido)morphinan.cndot.tartrate] | 0.457 | 5710 |  | 143 | 1.08 | 0.0042 | 0.0016 | 0.0232 |  | clearly demonstrated action that protects nerve cells from cytotoxicity caused by glutamic acid | 1410 |  |  |  |  | selective agonists for κ receptors | 
CN(C(=O)C#Cc1ccccc1)[C@H]1CC[C@@]2(O)[C@H]3Cc4ccc(O)c5c4[C@@]2(CCN3CC2CC2)[C@H]1O5 [Compound 84, 17-cyclopropylmethyl-3,14β-dihydroxy-4,5α-epoxy-6α-(N-methyl-3-phenylpropiolamido)morphinan.cndot.hydrochloride] | 2.07 | 35.4 |  | 0.309 | 5.69 | 0.0058 | 0.0028 | 0.0469 |  | clearly demonstrated action that protects nerve cells from cytotoxicity caused by glutamic acid | 2700 |  |  |  |  |  | selective agonists for δ receptors
CCC/C=C/C(=O)N(C)[C@@H]1CC[C@@]2(O)[C@H]3Cc4ccc(O)c5c4[C@@]2(CCN3CC2CC2)[C@H]1O5 [Compound 100, 17-cyclopropylmethyl-3,14β-dihydroxy-4,5α-epoxy-6β-(N-methyl-trans-2-hexenamido)morphinan.cndot.tartrate] | 0.647 | 1797 |  |  | 0.0717 | 0.024 | 0.0159 | 0.811 |  | clearly demonstrated action that protects nerve cells from cytotoxicity caused by glutamic acid | 1740 |  |  |  |  | selective agonists for κ receptors | 
CN(C(=O)C#Cc1ccccc1)[C@@H]1CC[C@@]2(O)[C@H]3Cc4ccc(O)c5c4[C@@]2(CCN3CC2CC2)[C@H]1O5 [Compound 101, 17-cyclopropylmethyl-3,14β-dihydroxy-4,5α-epoxy-6β-(N-methyl-3-phenylpropiolamido)morphinan.cndot.hydrochloride] | 0.269 | 25.4 |  | 31.6 | 0.0425 | 0.0066 | 0.0089 | 0.226 |  | clearly demonstrated action that protects nerve cells from cytotoxicity caused by glutamic acid | 12200 |  |  |  |  | selective agonists for κ receptors | 
CN(C(=O)/C=C/c1cccc([N+](=O)[O-])c1)[C@@H]1CC[C@@]2(O)[C@H]3Cc4ccc(O)c5c4[C@@]2(CCN3CC2CC2)[C@H]1O5 [Compound 104, 17-cyclopropylmethyl-3,14β-dihydroxy-4,5α-epoxy-6β-(N-methyl-3-nitrocinnamamido)morphinan.cndot.tartrate] | 0.227 | 185 |  | 89 | 1.40 | 0.017 |  |  |  | clearly demonstrated action that protects nerve cells from cytotoxicity caused by glutamic acid | 5450 | 12.0 ± 3.0 | 14.8 ± 1.2 | 106.2 ± 65.6 | significantly suppress defluxion of brain nerve cells caused by ischemia | selective agonists for κ receptors | 

From patent US6177438A, “Morphinan derivatives and pharmaceutical use thereof” (priority 1993, dated 2001)
